Nine compounds from patent US6664253B2, “Neurokinin antagonists” (Boehringer Ingelheim Pharma KG, priority 2000, dated 2003) can be followed below.

pKi: −log10 of the molar value.

The target in this test is T1, NK1-receptor (substance P-receptor) (Homo sapiens, UniProt P25103).
T1 construct: expressed in transfected cells; host or cells: IM-9 human lymphoblastoma cells
T1 sequence (P25103 whole entry): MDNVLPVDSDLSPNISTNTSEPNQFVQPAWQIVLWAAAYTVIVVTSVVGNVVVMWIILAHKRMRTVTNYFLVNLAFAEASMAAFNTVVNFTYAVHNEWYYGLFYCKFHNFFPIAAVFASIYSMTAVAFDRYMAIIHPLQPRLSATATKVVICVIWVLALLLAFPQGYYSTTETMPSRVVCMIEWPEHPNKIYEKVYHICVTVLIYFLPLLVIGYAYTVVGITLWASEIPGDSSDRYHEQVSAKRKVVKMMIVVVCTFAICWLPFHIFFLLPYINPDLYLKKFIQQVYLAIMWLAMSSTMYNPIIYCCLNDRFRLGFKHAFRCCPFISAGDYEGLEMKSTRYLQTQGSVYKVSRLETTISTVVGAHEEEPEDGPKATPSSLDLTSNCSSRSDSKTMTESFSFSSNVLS
The experiment in a line: NK1-receptor affinity, displacement of 125I-labelled substance P on IM-9 cells. The conditions noted are these: human lymphoblastoma cells (IM-9) with cloned NK1-receptors. It is filed as binding. The method, then:
The receptor affinity to the NK1-receptor (substance P-receptor) is determined on human lymphoblastoma cells (IM-9) with cloned NK1-receptors, by measuring the displacement of ^125I-labelled substance P. The Ki-values thus obtained show the efficacy of the compounds.
Take `CNC(=O)NC1CCN(C(C(=O)N(C)CCc2cc(C(F)(F)F)cc(C(F)(F)F)c2)c2ccccc2)CC1` (stereo not drawn) [Example 1, N-[2-(3,5-bis-trifluoromethyl-phenyl)-ethyl]-N-methyl-2-[4-(3-methyl-ureido)-piperidin-1-yl]-2-phenyl-acetamide]: the pKi is 9.15.

`CN(CCc1cc(C(F)(F)F)cc(C(F)(F)F)c1)C(=O)[C@H](c1ccccc1)N1CCC(N2CCCOC2=O)CC1` [Example 2, (S)-N-[2-(3,5-bis-trifluoromethyl-phenyl)-ethyl]-N-methyl-2-[4-(2-oxo-[1.3]oxazinan-3-yl)-piperidin-1-yl]-2-phenyl-acetamide] gave a pKi of 8.77. Regarding `CN(CCc1cc(C(F)(F)F)cc(C(F)(F)F)c1)C(=O)[C@H](c1ccccc1)N1CCC(N2C(=O)COC2=O)CC1` [Example 3], the pKi was 9.15.

In turn, `CN(CCc1cc(C(F)(F)F)cc(C(F)(F)F)c1)C(=O)[C@H](c1ccccc1)N1CCC(N2CCC(=O)N(C)C2=O)CC1` [Example 4] showed a negative-log Ki (pKi) of 9.22.

For the compound `CC1CC(=O)N(C)C(=O)N1C1CCN([C@H](C(=O)N(C)CCc2cc(C(F)(F)F)cc(C(F)(F)F)c2)c2ccccc2)CC1` (stereo partly drawn) [Example 5], the pKi was 9.22. As for `CN(CCc1cc(C(F)(F)F)cc(C(F)(F)F)c1)C(=O)[C@H](c1ccccc1)N1CCC(N2CCNC2=O)CC1` [Example 6], the figure is 8.46. As for `CN(CCc1cc(C(F)(F)F)cc(C(F)(F)F)c1)C(=O)[C@H](c1ccccc1)N1CCC(NC(=O)Nc2ccccc2)CC1` [Example 7], the figure is 9.10; as for `CC(=O)N1CCN(C2CCN(C(C(=O)NCc3cc(C(F)(F)F)cc(C(F)(F)F)c3)c3ccccc3)CC2)C1=O` (stereo not drawn) [Example B-6, reference compound], 6.78; as for `O=C(Nc1ccccc1)NC1CCN(C(C(=O)NCc2cc(C(F)(F)F)cc(C(F)(F)F)c2)c2ccccc2)CC1` (stereo not drawn) [Example B-7, reference compound], 6.36.

As usually defined, the pKi is the Ki on a negative log10 scale, so that one unit is a factor of ten. Higher therefore signals a small Ki.
